This passage reports TGI results from PubChem BioAssay (NCI).

The structures appear in SMILES notation.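 How tested: cells in 96-well plates exposed to compound for 48 hours at five concentrations. TGI: total growth inhibition.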 Where a SMILES comes first, the peptide text is derived from it. [ ]: non-standard residue; d: D form. Hiv = CC(C)[C@H](O)C(=O)O

Some test systems named below: NCI-H460 lung; A498 renal; HS 578T breast; OVCAR-5 ovarian; A549 NSCLC; TK-10 renal; SK-MEL-28 melanoma; NCI/ADR-RES ovarian; HCT-116 colon; CCRF-CEM leukemia; SF-539 CNS; IGROV1 ovarian; HCC-2998 colon; MOLT-4 leukemia; SN12C renal; M14 melanoma; PC-3 prostate; CAKI-1 renal; UO-31 renal; U251 CNS.
Common to all, as to experiment: NCI-60 cell line screen, 48 h

`CC(C)[C@@H]1OC(=O)[C@@H](C)NC(=O)[C@@H]2CCCN2C1=O` (cyclo([Hiv]-Pro-[dA])): the TGI in the experiment on NCI-H460 lung, in the experiment with A498 renal, with HS 578T breast, in the experiment on OVCAR-5 ovarian, in the experiment with A549 NSCLC and in the experiment with TK-10 renal was more than 100 µM each time. In addition, the TGI in the experiment on SK-MEL-28 melanoma, with NCI/ADR-RES ovarian, in the experiment with HCT-116 colon, in the experiment with CCRF-CEM leukemia, in the experiment with SF-539 CNS and in the experiment with IGROV1 ovarian was more than 100 µM throughout. Besides, the TGI in the experiment on HCC-2998 colon, with MOLT-4 leukemia, in the experiment with SN12C renal, in the experiment on M14 melanoma, in the experiment with PC-3 prostate and in the experiment with CAKI-1 renal was more than 100 µM in each case.

Regarding `Nc1nnc2oc3ccc4ccccc4c3cc1-2`, the TGI with NCI-H460 lung is more than 100 µM; in the experiment with A498 renal it was 71.8 µM; with HS 578T breast it was more than 100 µM; with OVCAR-5 ovarian it was more than 100 µM; in the experiment with A549 NSCLC it was more than 100 µM; in the experiment on TK-10 renal, more than 100 µM. Moreover, the TGI in the experiment on SK-MEL-28 melanoma, with NCI/ADR-RES ovarian, with HCT-116 colon, with CCRF-CEM leukemia, in the experiment with IGROV1 ovarian and with UO-31 renal was more than 100 µM each time. For the same compound, the TGI was 77.4 µM with HCC-2998 colon; more than 100 µM in the experiment with MOLT-4 leukemia; 87 µM in the experiment on SN12C renal; more than 100 µM with M14 melanoma; more than 100 µM in the experiment with PC-3 prostate; more than 100 µM in the experiment with U251 CNS. The TGI in the experiment on CAKI-1 renal was more than 100 µM.

Consider `Cc1cc(-c2cscn2)c(O)c([N+](=O)[O-])c1`, for which the TGI is more than 100 µM in the experiment on NCI-H460 lung; 99.7 µM in the experiment on A498 renal; more than 100 µM in the experiment on HS 578T breast; more than 100 µM with OVCAR-5 ovarian; more than 100 µM in the experiment with A549 NSCLC; more than 100 µM with TK-10 renal. Further, the TGI with NCI/ADR-RES ovarian, in the experiment with HCT-116 colon, in the experiment with CCRF-CEM leukemia, in the experiment with SF-539 CNS, with IGROV1 ovarian and in the experiment on UO-31 renal was more than 100 µM in each case. In addition, the TGI in the experiment with HCC-2998 colon, in the experiment with SN12C renal, in the experiment with M14 melanoma, with PC-3 prostate and in the experiment with CAKI-1 renal was more than 100 µM throughout.

Consider `Cc1[nH]n(-c2ccccc2)c(=O)c1C(N(CCc1ccccc1)C1=NCC(C)S1)(C(F)(F)F)C(F)(F)F` (centres undefined), for which the TGI with NCI-H460 lung was 38.2 µM; with A498 renal, 30.9 µM; with HS 578T breast, 88.4 µM; in the experiment on OVCAR-5 ovarian, 88 µM; in the experiment with A549 NSCLC, 83.7 µM; with TK-10 renal it was more than 100 µM. Moreover, the TGI was determined as 51.2 µM in the experiment on SK-MEL-28 melanoma; 89 µM in the experiment with NCI/ADR-RES ovarian; 23.8 µM in the experiment with HCT-116 colon; 68.7 µM in the experiment on CCRF-CEM leukemia; 32.3 µM in the experiment on SF-539 CNS; 25.3 µM in the experiment with UO-31 renal. Also, the TGI was determined as 34 µM in the experiment on HCC-2998 colon; 97.8 µM in the experiment with MOLT-4 leukemia; 48.5 µM with SN12C renal; 32.2 µM in the experiment on M14 melanoma; 84.9 µM with PC-3 prostate; 31.2 µM with U251 CNS. The TGI with CAKI-1 renal was more than 100 µM.

For `N=c1oc2ccc(Cl)cc2cc1C(N)=O`, the TGI is more than 100 µM in the experiment on NCI-H460 lung; more than 100 µM in the experiment with A498 renal; 63.9 µM in the experiment with HS 578T breast; more than 100 µM in the experiment on OVCAR-5 ovarian; more than 100 µM in the experiment on A549 NSCLC; more than 100 µM in the experiment on SK-MEL-28 melanoma. In addition, the TGI in the experiment with NCI/ADR-RES ovarian was more than 100 µM; with HCT-116 colon, 61.7 µM; in the experiment on CCRF-CEM leukemia, more than 100 µM; with SF-539 CNS it was more than 100 µM; with IGROV1 ovarian, more than 100 µM; with HCC-2998 colon, 47.4 µM. Further, the TGI in the experiment on MOLT-4 leukemia was more than 100 µM; with SN12C renal it was 45.1 µM; in the experiment on M14 melanoma it was more than 100 µM; with PC-3 prostate, 72.8 µM; in the experiment with U251 CNS, more than 100 µM; in the experiment with CAKI-1 renal, more than 100 µM.

As to `O=C(NCCCNCCCCNCCCNC(=O)c1cc(-c2ccccc2)nc2ccccc12)c1cc(-c2ccccc2)nc2ccccc12`, the TGI in the experiment on NCI-H460 lung is 19.7 µM; in the experiment with A498 renal, 47.5 µM; in the experiment on HS 578T breast, 4.32 µM; in the experiment with OVCAR-5 ovarian it was 5.26 µM; with A549 NSCLC, 4.88 µM; with TK-10 renal, 23.8 µM. Moreover, the TGI was 3.3 µM in the experiment with SK-MEL-28 melanoma; 74.2 µM in the experiment on NCI/ADR-RES ovarian; more than 100 µM in the experiment with HCT-116 colon; 3.63 µM with CCRF-CEM leukemia; 3.62 µM in the experiment with SF-539 CNS; 5.35 µM in the experiment with IGROV1 ovarian. For the same compound, the TGI was determined as 40 µM in the experiment with UO-31 renal; 4.61 µM in the experiment with HCC-2998 colon; 3.73 µM with MOLT-4 leukemia; 7.88 µM in the experiment on SN12C renal; 5.23 µM with M14 melanoma; 4.33 µM in the experiment with PC-3 prostate. Further, the TGI in the experiment on CAKI-1 renal came out at 36.3 µM.

Consider `CC(=O)N(CCCCNC(=O)C(F)(F)F)CCCNC(=O)C(F)(F)F`, for which the TGI in the experiment on NCI-H460 lung, in the experiment with A498 renal, in the experiment on HS 578T breast, in the experiment on OVCAR-5 ovarian, in the experiment with A549 NSCLC and in the experiment with TK-10 renal was more than 100 µM in each case. Also, the TGI in the experiment with SK-MEL-28 melanoma, with NCI/ADR-RES ovarian, in the experiment with HCT-116 colon, in the experiment on CCRF-CEM leukemia, with SF-539 CNS and in the experiment on IGROV1 ovarian was more than 100 µM throughout. For the same compound, the TGI in the experiment on UO-31 renal, with HCC-2998 colon, in the experiment with MOLT-4 leukemia, in the experiment with SN12C renal, in the experiment on M14 melanoma and in the experiment on PC-3 prostate was more than 100 µM each time. Further, the TGI in the experiment with U251 CNS was more than 100 µM.
